Laboratory results published in PMC7753147, “High-throughput determination of protein affinities using unmodified peptide libraries in nanomolar scale” (iScience, 2020).

Key:
native geph = assay: µSPOT peptide microarray binding assay with native geph from mouse brain lysate
gephE = assay: µSPOT peptide microarray binding assay with recombinant gephE
FL-geph = assay: µSPOT peptide microarray binding assay with full-length geph
[1] = µSPOT full positional scan of GlyRβ 15-mer DLRSNDFSIVGSLPR, native geph, intensity normalised to wild-type sequence (= 1)
[2] = µSPOT full positional scan of GlyRβ 15-mer DLRSNDFSIVGSLPR, intensity normalised to wild-type sequence (= 1)
[3] = µSPOT peptide microarray, GlyRβ full positional scan, native geph from mouse brain lysate, intensity normalised to wild-type sequence DLRSNDFSIVGSLPR (=1)
[4] = µSPOT peptide microarray, GlyRβ full positional scan, recombinant gephE, intensity normalised to wild-type sequence DLRSNDFSIVGSLPR (=1)
[5] = µSPOT peptide microarray, GlyRβ full positional scan, intensity normalised to wild-type sequence DLRSNDFSIVGSLPR (=1)

Sequence | Native geph Binding Intensity [norm.] (native geph; [1]) | gephE Binding Intensity [norm.] (gephE; [2]) | Fl-geph Binding Intensity [norm.] (FL-geph; [2]) | Native geph Binding Intensity [norm.] (native geph; [3]) | gephE Binding Intensity [norm.] (gephE; [4]) | Fl-geph Binding Intensity [norm.] (FL-geph; [5])
DLRSNDFSIVGSLPM [GlyRβ_Full_Positional_Scan_298] | 1.42 | 0.9 | 1.34 | – | – | –
DLRSNDFSIVGSLQR [GlyRβ_Full_Positional_Scan_280] | 0.41 | 0.53 | 0.77 | – | – | –
DLRSNDFSIVYSLPR [GlyRβ_Full_Positional_Scan_209, GlyR β 414-428 variant G424Y] | – | – | – | 0.2 | 0.41 | 0.48
DLRWNDFSIVGSLPR [GlyRβ_Full_Positional_Scan_068] | – | – | – | 0.95 | 0.92 | 0.81
DLRSNDMSIVGSLPR [GlyRβ_Full_Positional_Scan_138, GlyR β 414-428 variant F420M] | – | – | – | 0.32 | 0.43 | 0.51
WLRSNDFSIVGSLPR [GlyRβ_Full_Positional_Scan_008] | – | – | – | 0.67 | 0.91 | 0.86
DLRSNDFSKVGSLPR [GlyRβ_Full_Positional_Scan_174, GlyR β 414-428 variant I422K] | – | – | – | 0.13 | 0.47 | 0.58
DLRSNDFSIVGSGPR [GlyRβ_Full_Positional_Scan_242] | 0.66 | 0.69 | 0.91 | – | – | –
DLRSNDFSIVGDLPR [GlyRβ_Full_Positional_Scan_230] | 0.45 | 0.52 | 0.77 | – | – | –
DLRSNDFSIGGSLPR [GlyRβ_Full_Positional_Scan_182, GlyR β 414-428 variant V423G] | – | – | – | 0.27 | 0.48 | 0.56
DLRSNDFSIVGSLMR [GlyRβ_Full_Positional_Scan_278] | 0.44 | 0.6 | 0.77 | – | – | –
DMRSNDFSIVGSLPR [GlyRβ_Full_Positional_Scan_038] | – | – | – | 1.09 | 0.97 | 0.97
DLRSNEFSIVGSLPR [GlyRβ_Full_Positional_Scan_111] | – | – | – | 0.97 | 0.96 | 0.94
DLRSNDFAIVGSLPR [GlyRβ_Full_Positional_Scan_141, GlyR β 414-428 variant S421A] | – | – | – | 0.35 | 0.55 | 0.79
DLRSNDFSRVGSLPR [GlyRβ_Full_Positional_Scan_172, GlyR β 414-428 variant I422R] | – | – | – | 0.16 | 0.57 | 0.62
RLRSNDFSIVGSLPR [GlyRβ_Full_Positional_Scan_012] | – | – | – | 0.46 | 0.98 | 0.99
DLRSFDFSIVGSLPR [GlyRβ_Full_Positional_Scan_087] | – | – | – | 0.55 | 0.9 | 0.75
KLRSNDFSIVGSLPR [GlyRβ_Full_Positional_Scan_014] | – | – | – | 0.32 | 1.03 | 0.94
DLRSNDFSIVGSLPL [GlyRβ_Full_Positional_Scan_284] | 1.11 | 1.05 | 1.05 | – | – | –
DLRSNDFSIVGSTPR [GlyRβ_Full_Positional_Scan_256] | 0.89 | 0.86 | 1.14 | – | – | –
DLRSNRFSIVGSLPR [GlyRβ_Full_Positional_Scan_112] | – | – | – | 0.36 | 0.84 | 0.86
DLRSNDFSIVGSLPA [GlyRβ_Full_Positional_Scan_281] | 0.81 | 0.87 | 0.9 | – | – | –

Sequence | Native geph Binding Intensity [norm.] (native geph; [1]) | gephE Binding Intensity [norm.] (gephE; [2]) | Fl-geph Binding Intensity [norm.] (FL-geph; [2]) | Native geph Binding Intensity [norm.] (native geph; [3]) | gephE Binding Intensity [norm.] (gephE; [4]) | Fl-geph Binding Intensity [norm.] (FL-geph; [5])
DLWSNDFSIVGSLPR [GlyRβ_Full_Positional_Scan_048] | – | – | – | 1.17 | 0.86 | 1.13
DLRSNDFSIVGSLPD [GlyRβ_Full_Positional_Scan_290] | 0.66 | 0.96 | 1.21 | – | – | –
DLRQNDFSIVGSLPR [GlyRβ_Full_Positional_Scan_080] | – | – | – | 1.04 | 0.89 | 0.98
DLRSNDFSNVGSLPR [GlyRβ_Full_Positional_Scan_179, GlyR β 414-428 variant I422N] | – | – | – | 0.42 | 0.6 | 0.57
DGRSNDFSIVGSLPR [GlyRβ_Full_Positional_Scan_022] | – | – | – | 0.92 | 0.98 | 0.94
DLRSNDFSIVGSLVR [GlyRβ_Full_Positional_Scan_266] | 0.45 | 0.62 | 0.91 | – | – | –
HLRSNDFSIVGSLPR [GlyRβ_Full_Positional_Scan_013] | – | – | – | 0.83 | 1.1 | 1
DLRSNDFSIVGSLWR [GlyRβ_Full_Positional_Scan_268] | 0.32 | 0.61 | 0.72 | – | – | –
DLRSNQFSIVGSLPR [GlyRβ_Full_Positional_Scan_120] | – | – | – | 0.53 | 0.95 | 0.78
DLRSNDFNIVGSLPR [GlyRβ_Full_Positional_Scan_159, GlyR β 414-428 variant S421N] | – | – | – | 0.64 | 0.72 | 1.03
DLRENDFSIVGSLPR [GlyRβ_Full_Positional_Scan_071] | – | – | – | 1.11 | 0.93 | 0.97
DLRSNDFSIVVSLPR [GlyRβ_Full_Positional_Scan_206, GlyR β 414-428 variant G424V] | – | – | – | 0.17 | 0.43 | 0.42
DLRSNDFSIVGSEPR [GlyRβ_Full_Positional_Scan_251] | 0.67 | 0.8 | 1.11 | – | – | –
DLRSNDHSIVGSLPR [GlyRβ_Full_Positional_Scan_133, GlyR β 414-428 variant F420H] | – | – | – | 0.44 | 0.57 | 0.61
DLRSNDFEIVGSLPR [GlyRβ_Full_Positional_Scan_151, GlyR β 414-428 variant S421E] | – | – | – | 0.2 | 0.47 | 0.79
DLRSNLFSIVGSLPR [GlyRβ_Full_Positional_Scan_104] | – | – | – | 0.37 | 0.78 | 0.9
DLRSNDFSIVGSLER [GlyRβ_Full_Positional_Scan_271] | 0.28 | 0.32 | 0.75 | – | – | –
DLRMNDFSIVGSLPR [GlyRβ_Full_Positional_Scan_078] | – | – | – | 1.07 | 1.02 | 1.08
DLLSNDFSIVGSLPR [GlyRβ_Full_Positional_Scan_044] | – | – | – | 1.48 | 0.95 | 1.28
DTRSNDFSIVGSLPR [GlyRβ_Full_Positional_Scan_036] | – | – | – | 1.09 | 0.94 | 0.97
DLRSNDFSWVGSLPR [GlyRβ_Full_Positional_Scan_168, GlyR β 414-428 variant I422W] | – | – | – | 0.2 | 0.59 | 0.67
